Entries after “also recorded” stand apart in the source; their conditions may differ.
What was measured:
TC45 (45 kDa PTP) = biological target: T1, TC45 (45 kDa PTP) (Rattus norvegicus, UniProt P35233); assay: modified in-gel PTP assay (RCML substrate), insulin stimulated Rat-1 cells; format: cell-based; details: 50 nM insulin, serum-starved Rat-1 cells
T1 construct: endogenous in cells; host or cells: Rat-1 fibroblasts
T1 sequence (P35233 1-382 isoform P35233-2): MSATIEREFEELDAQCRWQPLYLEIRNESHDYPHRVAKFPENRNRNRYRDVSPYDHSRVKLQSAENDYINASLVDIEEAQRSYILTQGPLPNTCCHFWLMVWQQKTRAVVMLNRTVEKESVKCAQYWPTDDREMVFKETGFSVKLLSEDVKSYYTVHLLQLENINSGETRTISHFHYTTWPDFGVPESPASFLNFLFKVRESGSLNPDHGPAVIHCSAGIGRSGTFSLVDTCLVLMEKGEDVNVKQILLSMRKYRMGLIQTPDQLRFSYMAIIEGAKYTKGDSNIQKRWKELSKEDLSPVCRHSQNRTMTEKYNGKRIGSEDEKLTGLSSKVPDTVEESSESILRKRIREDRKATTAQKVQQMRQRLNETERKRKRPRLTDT
Method: (§1) The effect of insulin-induced H2O2 production on PTP oxidation was examined using the modified in-gel PTP assay essentially as described in Example 1. Serum-starved Rat-1 cells were exposed to 50 nM insulin for 2, 5, 10, 20, and 30 minutes. Lysates were prepared under anaerobic conditions in the presence of 10 mM IAA and then subjected to in-gel PTP assays. The substrate incorporated into the SDS-PAGE gels for these assays was ^32P-labeled reduced, carboxamidomethylated and maleylated lysozyme (RCML) (1.5×10^6 cpm/20 ml gel solution, ˜2 μM p-Tyr).
(§2) The oxidized 45 kDa and 50 kDa PTPs were identified as TC-45 and PTP1B, respectively, by immunodepletion and immunoblotting. Total cell lysates were prepared as described in Example 1. Lysate (400 μg) was incubated with normal IgG, anti-PTP1B antibody (FG6, LaMontagne et al., Mol. Cell. Biol. 18:2965-75 (1998)), or anti-TC45 antibody (1910H, Lorenzen et al., J. Cell. Biol. 131:631-43 (1995)) coupled to protein G-Sepharose ^T beads (Amersham Biosciences). After the immunoprecipitation step, the immune complexes and supernatants were collected and subjected to in-gel PTP assays. Immunodepletion of the 50 kDa PTP from the lysate with anti-PTP1B antibody is shown in FIG. 11B, and immunodepletion of the 45 kDa PTP with antibody specific for TC45 is shown in FIG. 11C. […]

PTP1B (50 kDa PTP) = biological target: T2, PTP1B (50 kDa PTP) (Rattus norvegicus, UniProt P20417); assay: as above; format: cell-based; details: 50 nM insulin, serum-starved Rat-1 cells
T2 construct: endogenous in cells; host or cells: Rat-1 fibroblasts
T2 sequence (P20417 1-432): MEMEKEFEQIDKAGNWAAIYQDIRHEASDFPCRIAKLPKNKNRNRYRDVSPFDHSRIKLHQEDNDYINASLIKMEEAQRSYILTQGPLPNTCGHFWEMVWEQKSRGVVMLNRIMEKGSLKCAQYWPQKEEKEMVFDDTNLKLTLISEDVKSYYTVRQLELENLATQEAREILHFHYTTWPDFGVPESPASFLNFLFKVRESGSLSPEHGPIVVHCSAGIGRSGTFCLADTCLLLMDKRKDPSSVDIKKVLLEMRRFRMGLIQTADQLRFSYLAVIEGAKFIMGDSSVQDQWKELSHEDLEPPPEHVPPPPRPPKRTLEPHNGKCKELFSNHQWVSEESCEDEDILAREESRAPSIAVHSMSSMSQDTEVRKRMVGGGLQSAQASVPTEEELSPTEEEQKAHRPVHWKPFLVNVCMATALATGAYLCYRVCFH
Method: as §1, §2

70 kDa PTP (SHP-2) = biological target: T3, 70 kDa PTP (SHP-2) (Rattus norvegicus, UniProt P41499); assay: modified in-gel PTP assay, growth factor stimulated Rat-1 cells; format: cell-based
T3 construct: endogenous in cells; host or cells: Rat-1 fibroblasts
T3 sequence (P41499 1-593): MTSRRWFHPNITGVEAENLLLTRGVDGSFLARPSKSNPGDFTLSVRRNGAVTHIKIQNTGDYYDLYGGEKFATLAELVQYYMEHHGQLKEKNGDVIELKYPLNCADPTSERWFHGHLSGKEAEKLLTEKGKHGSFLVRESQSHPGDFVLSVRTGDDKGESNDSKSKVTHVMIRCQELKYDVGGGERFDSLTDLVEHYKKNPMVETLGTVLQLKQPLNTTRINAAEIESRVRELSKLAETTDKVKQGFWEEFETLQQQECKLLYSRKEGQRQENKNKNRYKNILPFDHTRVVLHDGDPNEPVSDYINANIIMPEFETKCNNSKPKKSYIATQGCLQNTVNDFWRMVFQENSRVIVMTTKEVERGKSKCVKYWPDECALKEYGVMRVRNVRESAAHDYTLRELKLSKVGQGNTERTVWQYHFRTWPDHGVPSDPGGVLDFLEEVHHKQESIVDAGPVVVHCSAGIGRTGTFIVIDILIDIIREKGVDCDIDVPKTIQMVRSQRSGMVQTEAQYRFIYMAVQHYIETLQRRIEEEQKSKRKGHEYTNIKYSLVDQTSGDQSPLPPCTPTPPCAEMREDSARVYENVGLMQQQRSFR
Source text: (§3) To determine whether ROS stimulated intracellular tyrosine phosphorylation through the oxidation and inhibition of cellular PTPs, a modified in-gel PTP activity assay was devised, as follows: As substrate, poly (4:1) Glu-Tyr (Sigma) was labeled with [γ-^32P]-ATP using the GST-FER fusion PTK, as described previously (Shen et al., 1998 J. Biol. Chem. 273:6474-81). The labeled substrates were used within three weeks to limit the variation of its specific activity from experiment to experiment. The lysis buffer (25 mM CH3COONa, 1% NP-40, 150 mM NaCl, 10% glycerol, pH 5.5) was degassed at 4° C. for overnight, before catalase and superoxide dismutase (both 100 μg/ml), protease inhibitors and 10 mM iodoacetic acid (IAA) were added. Following stimulation, cells were lysed under anaerobic conditions in an argon chamber. Lysates (25 μg) were processed as described herein and an “in-gel” phosphatase assay (Burridge and Nelson, 1995) was conducted using SDS-PAGE gels containing a radioactively-labeled substrate (1.5×10^6 cpm/20 ml gel solution, approximately 2 μM p-Tyr).
(§4) Cells were triggered with the appropriate stimulus and harvested under anaerobic conditions in lysis buffer containing IAA. Those PTPs that had not encountered ROS in the cell became irreversibly inactivated by alkylation of their active site Cys with IAA. However, in contrast, any PTPs in which the active site Cys had been oxidized in response to the stimulus were resistant to alkylation. For the “in-gel” phosphatase assay, a 10% SDS-PAGE gel was cast containing a radioactively-labeled substrate. An aliquot of cell lysate was subjected to SDS-PAGE and proteins in the gel were sequentially denatured, then renatured in the presence of reducing reagents. […] The reaction was then terminated by fixing, staining and destaining the gel. Finally the gel was dried and exposed to film. The presence of a PTP was visualized by substrate dephosphorylation, as the appearance of a clear, white area on the black background of labeled substrate.
As described above, treatment of Rat-1 cells with H2O2 led to inactivation of multiple PTPs (FIGS. 2-3). […] Lysates of PDGF-stimulated Rat-1 cells were then analyzed using the modified in-gel PTP activity assay described above. […] Serum-starved Rat-1 cells were exposed to 50 ng/ml PDGF-BB for the times indicated (FIG. 4A). Lysates were prepared in the presence of 10 mM IAA and subjected to the in-gel PTP assay. […] The result shown is representative of four independent experiments. Oxidation of this 70 kDa PTP was reversible, reaching a maximum at 5 minutes, followed by marked reduction, almost to basal levels, within 20 minutes of PDGF treatment (FIG. 4A).
Rat-1 cells, either untreated (−) or stimulated with 50 ng/ml PDGF (+), were harvested in lysis buffer containing 10 mM IAA.

MAPK = assay: anti-phospho-MAPK / anti-MAPK immunoblot; format: cell-based, Rat
Method: (§5) For immunoprecipitation, cells were rinsed with ice-cold PBS, then lysed in ice-cold 20 mM Hepes (pH 7.5), 1% NP-40, 150 mM NaCl, 10% glycerol, 200 μM […] and protease inhibitors (25 μg/ml of aprotinin and leupeptin). […] The anti-pTyr antibody G104 was described previously (Garton et al., 1997 Oncogene 15, 877-885). Anti-PDGFRββ antibody (Ab-X) was a gift from Dr. Daniel DiMaio at Yale University (Irusta and DiMaio, 1998 EMBO J. 17, 6912-6923). Anti-human G-CSF receptor (G-CSFR) antibody was provided by Dr. Toshio Hirano at Osaka University, Japan (Fukada et al., 1996 Immunity 5, 449-460). Lysate (400 μg) was incubated with 5 μg of antibody conjugated to protein A/G-Sepharose (Amersham Pharmacia, Arlington Heights, Ill.) for 2 hours at 4° C. For immunoblotting, aliquots of total lysates (30 μg per sample) or immunoprecipitates were subjected to SDS-PAGE and transferred to nitrocellulose filters, which were incubated with appropriate primary and secondary antibodies and the specific signals were visualized by the ECL detection system (Amersham Pharmacia).

PDGFR/SHP-2 complex = assay: recruitment of SHP-2 into a complex with the PDGFR; format: cell-based; details: ligand stimulation in Rat-1 cells, preliminary studies
Method: as §5
Serum-starved Rat-1 cells were exposed to PDGF (50 ng/ml) for the indicated times (FIG. 5A). The PDGFR and associated proteins were immunoprecipitated with antibody Ab-X, and pTyr proteins visualized by immunoblotting with anti-pTyr Ab G104 (FIG. 5A, upper panel). […]

[1] = tested on: tyrosine phosphorylation of cellular proteins in Rat-1 cells; assay: immunoprecipitation (PT-66) and anti-pTyr (G104) immunoblot of tyrosine phosphorylated proteins; format: cell-based; details: PDGF-treated Rat-1 cells, preliminary experiments
Method: as §5

[2] = tested on: intracellular ROS in Rat-1 cells; assay: ROS-induced DCF fluorescence (microscopy, flow cytometry); format: cell-based; details: 20 μM CM-H2DCFDA, growth factor 50 ng/ml, 10 mins
Method: The effects of H2O2 and t-BHP on inactivation of PTPs and activation of MAPK signaling pathways were next compared in a cellular context. Intracellular ROS were measured using 2′,7′-dichlorofluorescein diacetate (H2DCFDA) and 5-(and-6)-chloromethyl-2′,7′-dichlorodihydrofluorescein diacetate (CM-H2DCFDA) (all fluorescent ROS indicators from Molecular Probes, Eugene, Oreg.) either by fluorescence microscopy, using a Zeiss Axiovert 405M inverted microscope equipped with a fluorescence attachment and digital camera, or by cell sorting, using a FACSCalibur System ([…].), according to the manufacturer's recommendations. Rat-1 cells were pre-loaded with 20 μM H2DCFDA in the dark for 20 mins, then exposed to H2O2 and t-BHP (both 200 μM) for 5 mins. Images of ROS-induced DCF fluorescence are shown at magnification 400× (FIG. 3B upper panel). Cells (1×10^5) that underwent the same treatment as above were harvested and resuspended in Hanks' solution, then immediately subjected to flow cytometric analysis to measure ROS-induced DCF fluorescence. The basal peak indicates background fluorescence, whereas the rightward shifted peak indicates ROS-induced DCF fluorescence (FIG. 3B, lower panels). […] Cells were exposed to H2O2 and t-BHP (each at 200 μM) for the indicated times, lysed in the presence of 10 mM IAA and oxidized PTPs were visualized in the in-gel PTP activity assay.
Rat-1 cells were incubated with 20 μM CM-H2DCFDA in the dark for 20 mins, then exposed to peptide growth factors (50 ng/ml) for an additional 10 mins. Images of ROS-induced DCF fluorescence are shown at 50× magnification. (FIG. 6A) The data are representative of 4 independent experiments. In FIG. 6B, Rat-1 cells were exposed to peptide growth factors for the indicated times, lysed in the presence of 10 mM IAA, and oxidized PTPs were visualized by the in-gel PTP assay. […] Aliquots of cell lysate from each treatment group were immunoblotted with anti-phospho-MAPK Ab and re-probed with anti-MAPK Ab.

SHP-2 (E76A mutant) = SHP-2 (E76A mutant) (Homo sapiens, UniProt Q06124, E76A); format: biochemical
[3] = tested on: PTPs in peripheral blood mononuclear lymphocytes; assay: in-gel protection assay, PHA-stimulated peripheral blood mononuclear lymphocytes; format: cell-based, human; details: 50 mM IAA, cells without ASBA-1 pretreatment
Method: Peripheral blood mononuclear lymphocytes were purified from human blood. In 5 ml media (RPMI), 2×10^7 cells were incubated in 50 μM ASBA-1 (PTP specific inhibitor) for 90 minutes and stimulated with phytohemagglutinin (PHA, 0.5 μL of 5.0 mg/ml stock) for 2, 10 or 30 min. […] Desalted proteins were separated on a 2 ml Source Q anion exchange column (Amersham Pharmacia Biotech) using a 0-1M NaCl gradient in 20 mM Tris, pH 7.5; 1 mM EDTA; 0.05% Triton X-100.

PTPs in Rat-1 cells = assay: modified in-gel PTP activity assay of Rat-1 cell lysates; format: cell-based
Source text: as §3, §4

## insulin: polypeptide hormone used as stimulus
TC45 (45 kDa PTP)
  oxidation of 45 kDa PTP (TC45): transiently oxidized; also recorded: induced the transient oxidation
PTP1B (50 kDa PTP)
  oxidation of 50 kDa PTP (PTP1B): transiently oxidized; also recorded: induced the transient oxidation

## PDGF: peptide growth factor
70 kDa PTP (SHP-2); 50 ng/ml PDGF-BB
  time of maximum oxidation of 70 kDa PTP: 5 min
  time to reduction of 70 kDa PTP almost to basal levels: ≤ 20 min
70 kDa PTP (SHP-2); 50 ng/ml PDGF-BB, serum-starved Rat-1 cells
  oxidation of ~70 kDa PTP: rapid and transient oxidation; also recorded: transiently oxidized
70 kDa PTP (SHP-2); peptide growth factors, lysis with 10 mM IAA
  oxidation and inhibition of SHP-2: oxidation and inhibition of SHP-2 was observed; also recorded: induced
MAPK; PDGF-treated Rat-1 cells, preliminary experiments
  phosphorylation of MAPKs: enhanced phosphorylation of MAPKs
MAPK; peptide growth factors, Rat-1 cells
  activation of MAPK: activated MAPK to a similar extent
PDGFR/SHP-2 complex
  fraction of total SHP-2 recruited into a complex with the PDGFR: ~10%
[1]
  tyrosine phosphorylation of cellular proteins: rapid increase in the tyrosine phosphorylation of cellular proteins
[2]
  production of intracellular ROS: triggered production of intracellular ROS

## O=C(O)CI [IAA, iodoacetic acid]
SHP-2 (E76A mutant)
  inactivation of purified SHP-2: inactivated by IAA
[3]
  inactivation of PTPs: inactivated by IAA
PTPs in Rat-1 cells
  inactivation of PTPs in lysate by alkylation: effectively inactivated PTPs

From patent publication US20030215899A1, “Reversible oxidation of protein tyrosine phosphatases” (CEPTYR, Inc., priority 2002, published 2003)
